Measured values: patent publication US8664257B2, “Oxygen-substituted 3-heteroaroylamino-propionic acid derivatives and their use as pharmaceuticals” (Sanofi, priority 2010, dated 2014)

molecular target: T1, Recombinant human cathepsin A (Homo sapiens, UniProt P10619); assay: Cathepsin A inhibitory activity; format: biochemical; settings: read-out: Activity (2): Cathepsin A inhibitory activity, IC50 class
T1 construct: Recombinant human cathepsin A (residues 29-480, with a C-terminal 10-His tag); 10-His (C); purchased R&D Systems 1049-SE
T1 sequence (P10619 29-312 limits assumed): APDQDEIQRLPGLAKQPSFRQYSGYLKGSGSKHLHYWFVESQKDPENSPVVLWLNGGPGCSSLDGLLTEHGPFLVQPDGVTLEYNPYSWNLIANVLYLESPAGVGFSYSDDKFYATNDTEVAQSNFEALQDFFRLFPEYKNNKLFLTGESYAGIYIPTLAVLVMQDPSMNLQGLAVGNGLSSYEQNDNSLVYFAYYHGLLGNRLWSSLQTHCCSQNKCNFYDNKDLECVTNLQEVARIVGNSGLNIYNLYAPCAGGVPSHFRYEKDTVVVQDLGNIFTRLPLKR
T1 sequence (P10619 327-480 limits assumed): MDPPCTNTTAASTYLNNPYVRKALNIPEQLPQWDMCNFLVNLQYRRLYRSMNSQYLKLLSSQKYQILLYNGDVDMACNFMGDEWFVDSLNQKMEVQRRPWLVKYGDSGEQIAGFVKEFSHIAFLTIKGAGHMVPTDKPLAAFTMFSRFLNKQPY
Procedure, shortened: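 Read-out was microfluidic separation of cleaved vs. uncleaved Bodipy FL-bradykinin (2 μM), giving turnover, % inhibition and IC50. Compound and 833 ng/ml enzyme met for 15 min RT in pH 5.5 MES/DTT before substrate (15 min RT). The 29-480 His-tagged human enzyme was first activated by cathepsin L, then E-64 (10 μM).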

Row | IC50 [nM] | SMILES
1 | 1000 to 30000 | O=C(O)C[C@H](NC(=O)c1cc(O)n(-c2ccc(F)cc2)n1)c1cccnc1 [Example 372]
2 | 100 to 1000 | COc1ccc(C(CC(=O)O)NC(=O)c2cc(O)n(-c3ccccc3)n2)c(C)c1 (centres unmarked) [Example 373]
3 | 100 to 1000 | COc1ccc([C@H](CC(=O)O)NC(=O)c2cc(O)n(-c3ccccc3)n2)cc1 [Example 374]
4 | 100 to 1000 | COc1ccc(Cl)cc1C(CC(=O)O)NC(=O)c1cc(O)n(-c2ccccc2)n1 (centres unmarked) [Example 375]
5 | 100 to 1000 | Cc1cccc([C@H](CC(=O)O)NC(=O)c2cc(O)n(-c3ccccc3)n2)c1 [Example 376]
6 | 100 to 1000 | Cc1cccc(C(CC(=O)O)NC(=O)c2cc(O)n(-c3ccccc3)n2)c1C (centres unmarked) [Example 377]
7 | 100 to 1000 | Cc1ccc(C)c(C(CC(=O)O)NC(=O)c2cc(O)n(-c3ccccc3)n2)c1 (centres unmarked) [Example 378]
8 | 100 to 1000 | COc1ccc(C(CC(=O)O)NC(=O)c2cc(O)n(-c3ccc(F)cc3F)n2)c(C)c1 (centres unmarked) [Example 379]
9 | 100 to 1000 | O=C(O)CC(NC(=O)c1cc(O)n(-c2ccc(F)cc2F)n1)c1cccc(Cl)c1 (centres unmarked) [Example 380]
10 | 100 to 1000 | N#Cc1cccc([C@H](CC(=O)O)NC(=O)c2cc(O)n(-c3ccc(F)cc3F)n2)c1 [Example 381]
11 | 100 to 1000 | COc1ccc([C@H](CC(=O)O)NC(=O)c2cc(O)n(-c3ccc(F)cc3F)n2)cc1 [Example 382]
12 | 100 to 1000 | COc1ccc(C(CC(=O)O)NC(=O)c2cc(O)n(-c3ccc(F)cc3F)n2)c(OC)c1 (centres unmarked) [Example 383]
13 | 100 to 1000 | O=C(O)CC(NC(=O)c1cc(O)n(-c2ccc(F)cc2F)n1)c1ccc(-c2cccc(F)c2)cc1 (centres unmarked) [Example 384]
14 | < 100 | O=C(O)CC(NC(=O)c1cc(O)n(-c2ccc(F)cc2F)n1)c1cccc(C(F)(F)F)c1F (centres unmarked) [Example 385, 3-{[1-(2,4-Difluoro-phenyl)-5-hydroxy-1H-pyrazole-3-carbonyl]-amino}-3-(2-fluoro-3-trifluoromethyl-phenyl)-propionic acid]
15 | 100 to 1000 | O=C(O)CC(NC(=O)c1cc(O)n(-c2ccc(F)cc2F)n1)c1cccc(Oc2ccc(Cl)cc2)c1 (centres unmarked) [Example 386]
16 | 100 to 1000 | O=C(O)C[C@H](NC(=O)c1cc(O)n(-c2ccc(F)cc2F)n1)c1ccccc1F [Example 387]
17 | 100 to 1000 | O=C(O)C[C@H](NC(=O)c1cc(O)n(-c2ccc(F)cc2F)n1)c1c(F)cccc1F [Example 388]

Row | IC50 [nM] | SMILES
18 | 1000 to 30000 | O=C(O)C[C@H](NC(=O)c1cc(O)n(-c2ccc(F)cc2F)n1)c1cccnc1 [Example 389]
19 | 100 to 1000 | COc1ccc([C@H](CC(=O)O)NC(=O)c2cc(O)n(-c3ccc(F)cc3F)n2)cn1 [Example 390]
20 | 100 to 1000 | O=C(O)CC(NC(=O)c1cc(O)n(-c2ccccc2Cl)n1)c1cccc(Cl)c1 (centres unmarked) [Example 391]
21 | 100 to 1000 | COc1ccc([C@H](CC(=O)O)NC(=O)c2cc(O)n(-c3ccccc3Cl)n2)cc1 [Example 392]
22 | 100 to 1000 | O=C(O)C[C@H](NC(=O)c1cc(O)n(-c2ccccc2Cl)n1)c1cccc(F)c1 [Example 393]
23 | 100 to 1000 | COc1cccc([C@H](CC(=O)O)NC(=O)c2cc(O)n(-c3ccccc3Cl)n2)c1OC [Example 394]
24 | 100 to 1000 | COc1ccc(C(CC(=O)O)NC(=O)c2cc(O)n(-c3ccccc3F)n2)c(C)c1 (centres unmarked) [Example 395]
25 | 100 to 1000 | O=C(O)CC(NC(=O)c1cc(O)n(-c2ccccc2F)n1)c1cccc(Cl)c1 (centres unmarked) [Example 396]
26 | < 100 | O=C(O)C[C@H](NC(=O)c1cc(O)n(-c2ccccc2F)n1)c1ccccc1Br [Example 397]
27 | 100 to 1000 | COc1ccc([C@H](CC(=O)O)NC(=O)c2cc(O)n(-c3ccccc3F)n2)cc1 [Example 398]
28 | < 100 | O=C(O)C[C@H](NC(=O)c1cc(O)n(-c2ccccc2F)n1)c1cccc(Cl)c1Cl [Example 399]
29 | 100 to 1000 | O=C(O)C[C@H](NC(=O)c1cc(O)n(-c2ccccc2F)n1)c1cccc(F)c1 [Example 400]
30 | 100 to 1000 | O=C(O)C[C@H](NC(=O)c1cc(O)n(-c2ccccc2F)n1)c1cccc(Cl)c1 [Example 401]
31 | < 100 | O=C(O)CC(NC(=O)c1cc(O)n(-c2ccccc2F)n1)c1cccc(Cl)c1Cl (centres unmarked) [Example 402]
32 | 100 to 1000 | COc1cccc([C@H](CC(=O)O)NC(=O)c2cc(O)n(-c3ccccc3F)n2)c1OC [Example 403]
33 | 100 to 1000 | Cc1cccc([C@H](CC(=O)O)NC(=O)c2cc(O)n(-c3ccccc3F)n2)c1 [Example 404]

same assay, conditions: recombinant human cathepsin A 833 ng/ml, Bodipy FL-labeled bradykinin 2 μM, pH 5.5; read-out: CATH-A IC50

Row | IC50 [nM] | SMILES
34 | 60.7 | O=C(O)CC(NC(=O)c1cc(O)n(-c2ccc(F)cc2F)n1)c1cccc(C(F)(F)F)c1F (centres unmarked) [Example 385, 3-{[1-(2,4-Difluoro-phenyl)-5-hydroxy-1H-pyrazole-3-carbonyl]-amino}-3-(2-fluoro-3-trifluoromethyl-phenyl)-propionic acid]
35 | 5290 | O=C(O)CC(NC(=O)c1cc(O)n(-c2cccc(Cl)c2)n1)c1cccc(C(F)(F)F)c1F (centres unmarked) [Example 418, 3-{[1-(3-Chloro-phenyl)-5-hydroxy-1H-pyrazole-3-carbonyl]-amino}-3-(2-fluoro-3-trifluoromethyl-phenyl)-propionic acid]

same assay, conditions: recombinant human cathepsin A; read-out: Activity (2): Cathepsin A inhibitory activity, IC50 class

Row | IC50 [nM] | SMILES
36 | < 100 | Cc1cccc(C(CC(=O)O)NC(=O)c2cc(O)n(-c3ccccc3F)n2)c1C (centres unmarked) [Example 405]
37 | 100 to 1000 | Cc1ccc(C)c(C(CC(=O)O)NC(=O)c2cc(O)n(-c3ccccc3F)n2)c1 (centres unmarked) [Example 406]
38 | 100 to 1000 | O=C(O)CC(NC(=O)c1cc(O)n(-c2ccccc2F)n1)c1ccc(Cl)c(Cl)c1 (centres unmarked) [Example 407]
39 | 100 to 1000 | O=C(O)CC(NC(=O)c1cc(O)n(-c2cccc(Cl)c2)n1)c1cccc(Cl)c1 (centres unmarked) [Example 408]
40 | 1000 to 30000 | COc1ccc([C@H](CC(=O)O)NC(=O)c2cc(O)n(-c3cccc(Cl)c3)n2)cc1 [Example 409]
41 | 1000 to 30000 | N#Cc1ccc([C@H](CC(=O)O)NC(=O)c2cc(O)n(-c3cccc(Cl)c3)n2)cc1 [Example 410]
42 | 1000 to 30000 | O=C(O)C[C@H](NC(=O)c1cc(O)n(-c2cccc(Cl)c2)n1)c1ccc(F)cc1 [Example 411]
43 | 1000 to 30000 | O=C(O)C[C@H](NC(=O)c1cc(O)n(-c2cccc(Cl)c2)n1)c1cccc(Cl)c1Cl [Example 412]
44 | 1000 to 30000 | COc1cccc([C@H](CC(=O)O)NC(=O)c2cc(O)n(-c3cccc(Cl)c3)n2)c1 [Example 413]
45 | 1000 to 30000 | O=C(O)C[C@H](NC(=O)c1cc(O)n(-c2cccc(Cl)c2)n1)c1cccc(F)c1 [Example 414]
46 | 100 to 1000 | O=C(O)C[C@H](NC(=O)c1cc(O)n(-c2cccc(Cl)c2)n1)c1cccc(Cl)c1 [Example 415]
47 | 1000 to 30000 | COc1ccccc1[C@@H](NC(=O)c1cc(O)n(-c2cccc(Cl)c2)n1)[C@@H](O)C(=O)O [Example 416]
48 | 100 to 1000 | COc1cccc([C@H](CC(=O)O)NC(=O)c2cc(O)n(-c3cccc(Cl)c3)n2)c1OC [Example 417]
49 | 1000 to 30000 | O=C(O)CC(NC(=O)c1cc(O)n(-c2cccc(Cl)c2)n1)c1cccc(C(F)(F)F)c1F (centres unmarked) [Example 418, 3-{[1-(3-Chloro-phenyl)-5-hydroxy-1H-pyrazole-3-carbonyl]-amino}-3-(2-fluoro-3-trifluoromethyl-phenyl)-propionic acid]
50 | 100 to 1000 | Cc1ccc(C(CC(=O)O)NC(=O)c2cc(O)n(-c3cccc(Cl)c3)n2)c(C)c1 (centres unmarked) [Example 419]
51 | 100 to 1000 | Cc1cc(F)ccc1C(CC(=O)O)NC(=O)c1cc(O)n(-c2cccc(Cl)c2)n1 (centres unmarked) [Example 420]
52 | 100 to 1000 | O=C(O)CC(NC(=O)c1cc(O)n(-c2cccc(Cl)c2)n1)c1ccc(-c2ccccc2)cc1 (centres unmarked) [Example 421]
53 | 100 to 1000 | O=C(O)C[C@H](NC(=O)c1cc(O)n(-c2cccc(Cl)c2)n1)c1ccccc1F [Example 422]
54 | 1000 to 30000 | COc1ccc([C@H](CC(=O)O)NC(=O)c2cc(O)n(-c3ccc(Cl)cc3)n2)cc1 [Example 423]
55 | 100 to 1000 | COc1ccc(C(CC(=O)O)NC(=O)c2cc(O)n(-c3ccc(Cl)cc3)n2)c(Cl)c1 (centres unmarked) [Example 424]
56 | 1000 to 30000 | O=C(O)CC(NC(=O)c1cc(O)n(-c2ccc(Cl)cc2)n1)c1ccc(-c2ccc(F)cc2)cc1 (centres unmarked) [Example 425]
